Measurements taken from patent publication US20260083865A1, “PROSTATE SPECIFIC MEMBRANE ANTIGEN (PSMA) LIGANDS AND USE THEREOF” (priority 2022, published 2026).
Where two headings read alike, the source gives them in different places. Each block holds one molecule with its values, some of them ahead of it. Numbered stars: 1 amine (or outer) side, 2 acyl side, 3 side chain; on linkers, the order of the positions; unused ones are H or OH. Bridge positions count the residues as written; N and C are the ends. Square brackets hold non-standard residues; d marks the D form. Peptide text beside a SMILES is read from it. * marks the point of attachment. TtdsdLys(DOTA)NH2 = NC(=O)[C@@H](CCCCNC(=O)CN1CCN(CC(=O)O)CCN(CC(=O)O)CCN(CC(=O)O)CC1)NC(=O)CCC(=O)NCCCOCCOCCOCCCN*; DOTA = O=C(O)CN1CCN(CC(=O)O)CCN(CC(=O)*)CCN(CC(=O)O)CC1; Phe(3-CN) = N#Cc1cccc(C[C@H](N)C(=O)O)c1; Phe(4-Cl) = N[C@@H](Cc1ccc(Cl)cc1)C(=O)O; 1Nal = N[C@@H](Cc1cccc2ccccc12)C(=O)O; X1 = O=C(CC1CCN([*:1])CC1)[*:2]; Cit = NC(=O)NCCC[C@H](N)C(=O)O; Tle = CC(C)(C)[C@H](N)C(=O)O; Orn = NCCC[C@H](N)C(=O)O; Hexanoyl = CCCCCC(=O)*; Aib = CC(C)(N)C(=O)O

Assays:
[1] = target: T1, Fc-fusion protein of human PSMA (hPSMA-Fc) (Homo sapiens, UniProt Q04609); assay: Surface plasmon resonance assay (Biacore T200, single cycle kinetic); assay type: binding; settings: hPSMA-Fc, 25° C., read-out: pKD CAT (converted)
T1 construct: purchased Acro Biosystems PSA-H5264
T1 sequence (Q04609 44-750 limits assumed): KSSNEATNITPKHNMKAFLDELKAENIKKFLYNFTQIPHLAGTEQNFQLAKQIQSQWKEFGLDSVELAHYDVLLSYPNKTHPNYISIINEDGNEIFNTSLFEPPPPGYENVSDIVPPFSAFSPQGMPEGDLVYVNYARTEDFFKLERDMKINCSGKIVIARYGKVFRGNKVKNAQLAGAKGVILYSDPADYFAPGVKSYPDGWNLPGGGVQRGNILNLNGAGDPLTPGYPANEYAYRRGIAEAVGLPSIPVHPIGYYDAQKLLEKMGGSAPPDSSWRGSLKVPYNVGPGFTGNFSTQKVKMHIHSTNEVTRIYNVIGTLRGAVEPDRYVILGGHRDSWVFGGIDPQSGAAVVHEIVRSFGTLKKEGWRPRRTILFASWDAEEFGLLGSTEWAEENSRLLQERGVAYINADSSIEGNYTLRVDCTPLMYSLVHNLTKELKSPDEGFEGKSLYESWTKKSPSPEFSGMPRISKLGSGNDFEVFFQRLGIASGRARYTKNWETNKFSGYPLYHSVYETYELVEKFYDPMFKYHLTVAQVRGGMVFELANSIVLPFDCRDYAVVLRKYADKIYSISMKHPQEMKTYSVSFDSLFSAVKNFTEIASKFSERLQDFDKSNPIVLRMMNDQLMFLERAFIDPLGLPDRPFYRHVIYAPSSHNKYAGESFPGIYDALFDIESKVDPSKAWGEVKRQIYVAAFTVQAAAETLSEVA
Outline: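 KD, expressed as pKD, came from 1:1 Langmuir fits of reference- and buffer-blank-subtracted SPR data. The runs were single-cycle kinetics at 25° C in HBST/0.1% DMSO over human PSMA-Fc, captured to ~1000 RU on a peptide-coated CM5 surface and regenerated with 10 mM glycine pH 1.5.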

[2] = target: T2, PSMA-expressing C4-2 cells (Homo sapiens, UniProt Q04609); assay: FACS binding assay (competition with 50 nM PSM-0183); settings: read-out: pIC50 [C4-2] CAT (converted)
T2 construct: PSMA-expressing C4-2 cells (ATCC, Cat. No. CRL-3314) were cultured in RPMI-1640; host or cells: C4-2 cells
T2 sequence (Q04609 whole entry): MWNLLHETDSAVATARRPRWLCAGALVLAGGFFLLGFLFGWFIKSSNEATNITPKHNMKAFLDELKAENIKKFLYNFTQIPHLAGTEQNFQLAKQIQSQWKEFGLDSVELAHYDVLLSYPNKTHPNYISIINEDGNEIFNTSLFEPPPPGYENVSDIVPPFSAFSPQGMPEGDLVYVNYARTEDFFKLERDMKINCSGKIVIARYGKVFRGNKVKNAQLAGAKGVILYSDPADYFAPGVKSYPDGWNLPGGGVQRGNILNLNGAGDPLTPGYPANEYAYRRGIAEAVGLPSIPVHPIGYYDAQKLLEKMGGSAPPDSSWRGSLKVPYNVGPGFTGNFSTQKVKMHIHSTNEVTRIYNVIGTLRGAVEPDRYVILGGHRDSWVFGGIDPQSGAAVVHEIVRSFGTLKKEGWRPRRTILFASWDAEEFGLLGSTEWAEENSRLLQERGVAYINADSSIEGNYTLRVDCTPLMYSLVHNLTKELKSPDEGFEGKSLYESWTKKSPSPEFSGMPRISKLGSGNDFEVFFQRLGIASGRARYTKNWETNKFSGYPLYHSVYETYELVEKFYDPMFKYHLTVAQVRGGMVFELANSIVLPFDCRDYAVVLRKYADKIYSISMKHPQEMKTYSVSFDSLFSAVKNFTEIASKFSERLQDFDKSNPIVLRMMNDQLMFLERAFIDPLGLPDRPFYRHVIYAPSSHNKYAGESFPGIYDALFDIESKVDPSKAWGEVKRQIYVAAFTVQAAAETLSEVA
Outline: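 Competition format: fluorescent tracer PSM-0183 (50 nM) displaced from PSMA on C4-2 cells by a test compound titration over 1 h at 4 °C. Bound tracer was quantified as flow-cytometric AF488 median fluorescence after washing. Four-parameter logistic fits of MFI data gave IC50 and pIC50.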

[3] = FACS binding, PSMA-expressing C4-2 cells, pIC50 category
[4] = SPR, single cycle kinetic, category
[5] = FACS binding, C4-2 cells, competition with 50 nM PSM-0183, category
[6] = pKD category for PSMA SPR activity assay
[7] = pIC50 category of FACS binding, C4-2 cells

- Kd ([1]; PSMA SPR assay, pKD category): < 12.6 nM
- IC50 [2, 3]: < 200 nM
Structure (SMILES): CC(=O)N[C@H](C(=O)NC(C)(C)C(=O)N[C@@H](Cc1ccccc1)C(=O)N[C@H]1CSSC[C@@H](C(=O)N[C@H](C(=O)N[C@H](C(=O)N[C@@H](CC(=O)O)C(N)=O)[C@@H](C)O)C(C)(C)C)NC(=O)[C@H](CC(N)=O)NC(=O)[C@H](C)NC(=O)[C@H](CCCNC(N)=O)NC(=O)[C@H](CCCCN)NC1=O)[C@@H](C)O [PSM-0307, Ac-Thr-Aib-Pho-[Cys-Lys-Cit-Ala-Asn-Cys]-Tle-Thr-Asp-NH2] (Ac-T[Aib]FCK[Cit]ANC[Tle]TD-NH2; disulfide 4-9)

- Kd ([1]; PSMA SPR assay, pKD category): 12.6 to 126 nM
- IC50 [2, 3]: 200 to 1260 nM
Structure (SMILES): CC[C@H](C)[C@H](NC(=O)CC1CCN(C(=O)CN2CCN(CC(=O)O)CCN(CC(=O)O)CCN(CC(=O)O)CC2)CC1)C(=O)NC(C)(C)C(=O)N[C@@H](Cc1ccccc1)C(=O)N[C@H]1CSSC[C@@H](C(=O)N[C@H](C(=O)N[C@H](C(N)=O)[C@@H](C)O)C(C)(C)C)NC(=O)[C@H](CC(N)=O)NC(=O)C(C)(C)NC(=O)[C@H](CCCNC(=N)N)NC(=O)[C@H](CCCCN)NC1=O [PSM-0357, DOTA-Cmp-Ile-Aib-Phe-[Cys-Lys-Arg-Aib-Asn-Cys]-Tle-Thr-NH2] ({DOTA}-[X1]I[Aib]FCKR[Aib]NC[Tle]T-NH2; disulfide 5-10)

- Kd [1, 4]: 12.6 to 126 nM
- IC50 [2, 5]: 200 to 1260 nM
Structure (SMILES): CC(=O)NC(=N)NCCC[C@@H]1NC(=O)[C@H](CCCCN)NC(=O)[C@@H](NC(=O)[C@H](Cc2ccc(Cl)cc2)NC(=O)C(C)(C)NC(=O)CC2CCN(C(=O)CN3CCN(CC(=O)O)CCN(CC(=O)O)CCN(CC(=O)O)CC3)CC2)CSSC[C@@H](C(=O)N[C@H](C(=O)N[C@H](C(N)=O)[C@@H](C)O)C(C)(C)C)NC(=O)[C@H](CC(N)=O)NC(=O)C(C)(C)NC1=O [PSM-0223, DOTA-Cmp-Aib-Pcf-[Cys-Lys-Arg(Ac)-Aib-Asn-Cys]-Tle-Thr-NH2] ({DOTA}-[X1][Aib][Phe(4-Cl)]CKR(Ac)[Aib]NC[Tle]T-NH2; disulfide 4-9)

- Kd [1, 6]: < 12.6 nM
- IC50 [2, 7]: < 200 nM
Structure (SMILES): CC(=O)N[C@H](C(=O)NC(C)(C)C(=O)N[C@@H](Cc1cccc(C#N)c1)C(=O)N[C@H]1CSSC[C@@H](C(=O)N[C@H](C(=O)N[C@H](C(N)=O)[C@@H](C)O)C(C)(C)C)NC(=O)[C@H](CC(N)=O)NC(=O)C(C)(C)NC(=O)[C@H](CCCNC(=N)N)NC(=O)[C@H](CCCCN)NC1=O)[C@@H](C)O [PSM-0555, Ac-Thr-Aib-Mnf-[Cys-Lys-Arg-Aib-Asn-Cys]-Tle-Thr-NH2] (Ac-T[Aib][Phe(3-CN)]CKR[Aib]NC[Tle]T-NH2; disulfide 4-9)

- Kd [1, 4]: < 12.6 nM
- IC50 [2, 5]: < 200 nM
Structure (SMILES): CC(=O)N[C@H](C(=O)NC(C)(C)C(=O)N[C@@H](Cc1cccc2ccccc12)C(=O)N[C@H]1CSSC[C@@H](C(=O)N[C@H](C(=O)N[C@H](C(=O)N[C@@H](CC(=O)O)C(N)=O)[C@@H](C)O)C(C)(C)C)NC(=O)[C@H](CC(N)=O)NC(=O)C(C)(C)NC(=O)[C@H](CCCNC(=N)N)NC(=O)[C@H](CCCCN)NC1=O)[C@@H](C)O [PSM-0249, Ac-Thr-Aib-1Ni-[Cys-Lys-Arg-Aib-Asn-Cys]-Tle-Thr-Asp-NH2] (Ac-T[Aib][1Nal]CKR[Aib]NC[Tle]TD-NH2; disulfide 4-9)

- Kd [1, 4]: < 12.6 nM
- IC50 [2, 5]: < 200 nM
Structure (SMILES): C[C@@H](O)[C@H](NC(=O)[C@@H](NC(=O)[C@@H]1CSSC[C@H](NC(=O)[C@H](Cc2ccc(Cl)cc2)NC(=O)C(C)(C)NC(=O)[C@@H](NC(=O)CC2CCN(C(=O)CN3CCN(CC(=O)O)CCN(CC(=O)O)CCN(CC(=O)O)CC3)CC2)[C@@H](C)O)C(=O)N[C@@H](CCCCN)C(=O)N[C@@H](CCCN)C(=O)NC(C)(C)C(=O)N[C@@H](CC(N)=O)C(=O)N1)C(C)(C)C)C(N)=O [PSM-0245, DOTA-Cmp-Thr-Aib-Pcf-[Cys-Lys-Orn-Aib-Asn-Cys]-Tle-Thr-NH2] ({DOTA}-[X1]T[Aib][Phe(4-Cl)]CK[Orn][Aib]NC[Tle]T-NH2; disulfide 5-10)

- Kd [1, 6]: 12.6 to 126 nM
- IC50 [2, 7]: < 200 nM
Structure (SMILES): CCCCCC(=O)N[C@H](C(=O)N[C@@H](C)C(=O)N[C@@H](Cc1ccccc1)C(=O)N[C@H]1CSSC[C@@H](C(=O)N[C@@H](CC(C)C)C(=O)N[C@H](C(=O)N[C@@H](CC(=O)O)C(=O)NCCCOCCOCCOCCCNC(=O)CCC(=O)N[C@H](CCCCNC(=O)CN2CCN(CC(=O)O)CCN(CC(=O)O)CCN(CC(=O)O)CC2)C(N)=O)[C@@H](C)O)NC(=O)[C@H](CC(N)=O)NC(=O)[C@H](C)NC(=O)[C@H](CCCNC(=N)N)NC(=O)[C@H](CCCCN)NC1=O)[C@@H](C)O [PSM-0405, Hex-Thr-Ala-Phe-[Cys-Lys-Arg-Ala-Asn-Cys]-Leu-Thr-Asp-Ttds-lys(DOTA)-NH2] (Hexanoyl-TAFCKRANCLTD-{TtdsdLys(DOTA)NH2}; disulfide 4-9)
